Active and inactive are the calls of the source. The rule behind the calls is not given here.
Tests used:
[1] = Cytotoxicity against mouse lymphocytes at 100 ug/mL by MTS assay
Mus musculus [2] = species: Mus musculus; test: Increase in concanavalin A-induced proliferation in mouse T-lymphocytes at 1 ug/mL by MTS assay; assay type: functional, cell-based
Mus musculus [3] = species: Mus musculus; test: Increase in LPS-induced proliferation in mouse B-lymphocytes at 1 ug/mL by MTS assay; assay type: functional, cell-based
[4] = Suppression of concanavalin A-induced proliferation in mouse T-lymphocytes at 1 ug/mL by MTS assay; assay type: functional
Mus musculus [5] = species: Mus musculus; test: Immunostimulant activity in mouse lymphocytes at 100 pg/ml to 1 ug/mL by MTS assay; assay type: functional, cell-based
[6] = Cytotoxicity against mouse lymphocytes at 10 ug/mL by MTS assay

SMILES | Activity [1] | Activity (Mus musculus [2]) | Activity (Mus musculus [3]) | Activity [4] [%] | Activity (Mus musculus [5]) | Activity [6]
C[C@@H]1O[C@@H](O[C@H]2[C@H](O[C@H]3[C@H](OC(=O)[C@]45CCC(C)(C)C[C@H]4C4=CC[C@@H]6[C@@]7(C)CC[C@H](O[C@@H]8O[C@H](CO)[C@@H](O)[C@H](O)[C@H]8O)[C@@](C)(C=O)[C@@H]7CC[C@@]6(C)[C@]4(C)CC5)O[C@H](CO[C@@H]4O[C@H](CO)[C@@H](O)[C@H](O)[C@H]4O)[C@@H](O)[C@@H]3O)OC[C@H](O)[C@@H]2O)[C@H](O)[C@H](O)[C@H]1O | Non-toxic | Active | Active | – | – | –
C[C@@H]1O[C@@H](O[C@@H]2[C@@H](O)[C@H](OC(=O)[C@]34CCC(C)(C)C[C@H]3C3=CC[C@@H]5[C@@]6(C)CC[C@H](O[C@@H]7O[C@H](C(=O)O)[C@@H](O)[C@H](O[C@@H]8OC[C@@H](O)[C@H](O)[C@H]8O)[C@H]7O[C@@H]7O[C@H](CO)[C@H](O)[C@H](O)[C@H]7O)[C@@](C)(C=O)[C@@H]6CC[C@@]5(C)[C@]3(C)CC4)O[C@H](C)[C@@H]2O[C@@H]2O[C@@H](C)[C@H](O[C@@H]3OC[C@@H](O)[C@H](O[C@@H]4OC[C@@H](O)[C@H](O)[C@H]4O)[C@H]3O)[C@@H](O)[C@H]2O)[C@H](O)[C@H](O)[C@H]1O | 58% | – | Active | 40 | Active | Non-toxic
